Where “and” joins values, the source holds several entries; their conditions need not be identical. Equal values may be shown once. Read-outs that look alike come from different tables or passages of the source.

For series [1], the system named is SH-SY5Y neuroblastoma cells. As to conditions: human, 24 h, 13 μM.
Description: (§1) The neuroblastoma cell lines SH-SY5Y (ATCC) were grown in 25 cm^2 flasks at 37 °C with 5% CO2 in advanced DMEM/F-12 medium (Sigma-Aldrich), supplemented with 10% fetal bovine serum (Invitrogen); for cytotoxicity assay, cells were seeded at a density of 1 × 10^4 in triplicate per sample in a 96 well microplate 24 h before the treatment. The fullerenemalonates were incubated for 24 h at the corresponding concentration for their ability to inhibit Aβ42 aggregation, 13 μM. Likewise, the vehicles of each fullerenemalonate other than water (acetonitrile and ethanol) were assessed to validate its toxicity. The cell viability assay was evaluated using Thiazolyl Blue Tetrazolium Bromide (MTT, Sigma-Aldrich); based on the conversion of MTT to water-insoluble MTT-formazan of dark blue color by the mitochondrial dehydrogenases of living cells. The absorbance of formazan was measured at a wavelength of 570 nm in a plate reader, iMark Biorad. For a cytotoxic concentration (CC50) the fullerenemalonates were incubated at different concentrations followed by a cell viability assay. The CC50 was determined from the curves obtained by fitting the average absorbance values in three independent experiments in the 10–80 μM fullerenemalonate concentration range.
Details of series [2]: method as in PMID 16853553. The note with it: aqueous solution; cited from earlier work.
Series [3] deals with SH-SY5Y neuroblastoma cells. Put plainly: MTT cell viability assay. As to conditions: 13 μM, 24 h, normalized to control.
Description: as §1
Series [4] relates to Aβ42. The note with it: cited from earlier work.

Consider `CCOC(=O)C1(C(=O)OCC)C23c4c5c6c7c8c9c(c%10c%11c2c2c4c4c%12c5c5c6c6c8c8c%13c9c9c%10c%10c%11c%11c2c2c4c4c%12c%12c5c5c6c8c6c8c%13c9c9c%10c%10c%11c2c2c4c4c%12c5c6c5c8c9c%10c2c45)C713` [C61(COOEt)2], for which the “Cell survival rate (%)” value in series [1] is given as 65.65 ± 0.29%. For the compound `O=C([O-])C1(C(=O)[O-])C23c4c5c6c7c8c9c(c%10c%11c2c2c4c4c%12c5c5c6c6c8c8c%13c9c9c%10c%10c%11c%11c2c2c4c4c%12c%12c5c5c6c8c6c8c%13c9c9c%10c%10c%11c2c2c4c4c%12c5c6c5c8c9c%10c2c45)C713.[Na+].[Na+]` [C61(COONa)2], the “Average hydrodynamic radius Rh of self-assembled particles” value in series [2] is recorded as “≈ 32 nm”. In addition, the “Cell survival rate (%)” value in series [3] was 64% and 64.34 ± 0.30%.

With 1,2-(dimethoxymethano) fullerene, the concentration for half-maximal inhibition (IC50) (in general, the concentration at which inhibition is half-maximal) in series [4] (Aβ42 concentration 20 μM, read-out: IC50, inhibition of Aβ peptide aggregation) is around 9 µM. On to sodium fullerenolate, for which the “Anti-amyloid activity in Aβ42” value in series [4] is given as “strong anti-amyloid activity”. Turning to `CCOC(=O)C1(C(=O)OCC)C23c4c5c6c7c8c4-c4c2c2c9c%10c%11c%12c(c-5c5c%13c%14c%15c%16c%17c(c-7c7c%18c%19c%20c%21c(c4C%204C(C(=O)OCC)(C(=O)OCC)C874)c2c2c9c4c%11c7c(c%13%12)c%14c8c%16c9c(c%18%17)c%19c%11c%21c2c2c4c7c8c9c%112)C%152C(C(=O)OCC)(C(=O)OCC)C652)C%1013` (stereo not drawn) [C3-C63(COOEt)6], the “Cell survival rate (%)” value in series [1] was 78.59 ± 0.22%.

Values taken from article PMC9090717, “Fullerenemalonates inhibit amyloid beta aggregation, in vitro and in silico evaluation” (RSC Advances, 2018).
